Literature values as cited in patent US20080075681A1, “Method and composition for permanently shaping hair” (priority 2006, published 2008).

Settings: compared to N-methylmercaptoacetamide and N-hydroxyethylmercaptoacetamide; EP 0969791 B1

SMILES: O=C(CS)NCCCO [N-(3′-hydroxypropyl)-2-mercapto-acetamide]
- sensitization rates: substantially lower
